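Five concentrations, 48 hours, 96-well plates. TGI: concentration producing complete growth inhibition.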
Assays:
Test in all cases: NCI anticancer screen, dose series, 48 h
786-0 renal = tested on: 786-0 renal
A498 renal = tested on: A498 renal
A549 NSCLC = tested on: A549 NSCLC
ACHN renal = tested on: ACHN renal
CAKI-1 renal = tested on: CAKI-1 renal
CCRF-CEM leukemia = tested on: CCRF-CEM leukemia
COLO 205 colon = tested on: COLO 205 colon
DU-145 prostate = tested on: DU-145 prostate
HCC-2998 colon = tested on: HCC-2998 colon
HCT-116 colon = tested on: HCT-116 colon
HCT-15 colon = tested on: HCT-15 colon
HL-60(TB) leukemia = tested on: HL-60(TB) leukemia
HOP-62 NSCLC = tested on: HOP-62 NSCLC
HS 578T breast = tested on: HS 578T breast
HT29 colon = tested on: HT29 colon
IGROV1 ovarian = tested on: IGROV1 ovarian
K-562 leukemia = tested on: K-562 leukemia
KM12 colon = tested on: KM12 colon
LOX IMVI melanoma = tested on: LOX IMVI melanoma
M14 melanoma = tested on: M14 melanoma
MALME-3M melanoma = tested on: MALME-3M melanoma
MCF7 breast = tested on: MCF7 breast
MDA-MB-231 breast = tested on: MDA-MB-231 breast
MDA-MB-435 = tested on: MDA-MB-435
MDA-N = tested on: MDA-N
MOLT-4 leukemia = tested on: MOLT-4 leukemia
NCI-H226 lung = tested on: NCI-H226 lung
NCI-H23 lung = tested on: NCI-H23 lung
NCI-H460 lung = tested on: NCI-H460 lung
NCI-H522 lung = tested on: NCI-H522 lung
NCI/ADR-RES ovarian = tested on: NCI/ADR-RES ovarian
OVCAR-3 ovarian = tested on: OVCAR-3 ovarian
OVCAR-4 ovarian = tested on: OVCAR-4 ovarian
OVCAR-5 ovarian = tested on: OVCAR-5 ovarian
OVCAR-8 ovarian = tested on: OVCAR-8 ovarian
PC-3 prostate = tested on: PC-3 prostate
RPMI-8226 leukemia = tested on: RPMI-8226 leukemia
RXF 393 renal = tested on: RXF 393 renal
SF-268 CNS = tested on: SF-268 CNS
SF-295 CNS = tested on: SF-295 CNS
SF-539 CNS = tested on: SF-539 CNS
SK-MEL-2 melanoma = tested on: SK-MEL-2 melanoma
SK-MEL-28 melanoma = tested on: SK-MEL-28 melanoma
SK-MEL-5 melanoma = tested on: SK-MEL-5 melanoma
SK-OV-3 ovarian = tested on: SK-OV-3 ovarian
SN12C renal = tested on: SN12C renal
SNB-19 CNS = tested on: SNB-19 CNS
SNB-75 CNS = tested on: SNB-75 CNS
SR leukemia = tested on: SR leukemia
SW-620 colon = tested on: SW-620 colon
T-47D breast = tested on: T-47D breast
TK-10 renal = tested on: TK-10 renal
U251 CNS = tested on: U251 CNS
UACC-257 melanoma = tested on: UACC-257 melanoma
UACC-62 melanoma = tested on: UACC-62 melanoma
UO-31 renal = tested on: UO-31 renal
BT-549 breast = tested on: BT-549 breast
EKVX NSCLC = tested on: EKVX NSCLC
HOP-92 NSCLC = tested on: HOP-92 NSCLC

Measured: TGI

C=C=C(C)[Si](C)(C)C
> 100 µM: 786-0 renal | A498 renal | A549 NSCLC | ACHN renal | CAKI-1 renal | CCRF-CEM leukemia | COLO 205 colon | DU-145 prostate | HCC-2998 colon | HCT-116 colon | HCT-15 colon | HL-60(TB) leukemia | HOP-62 NSCLC | HS 578T breast | HT29 colon | IGROV1 ovarian | K-562 leukemia | KM12 colon | LOX IMVI melanoma | M14 melanoma | MALME-3M melanoma | MCF7 breast | MDA-MB-231 breast | MDA-MB-435 | MDA-N | MOLT-4 leukemia | NCI-H226 lung | NCI-H23 lung | NCI-H460 lung | NCI-H522 lung | NCI/ADR-RES ovarian | OVCAR-3 ovarian | OVCAR-4 ovarian | OVCAR-5 ovarian | OVCAR-8 ovarian | PC-3 prostate | RPMI-8226 leukemia | RXF 393 renal | SF-268 CNS | SF-295 CNS | SF-539 CNS | SK-MEL-2 melanoma | SK-MEL-28 melanoma | SK-MEL-5 melanoma | SK-OV-3 ovarian | SN12C renal | SNB-19 CNS | SNB-75 CNS | SR leukemia | SW-620 colon | T-47D breast | TK-10 renal | U251 CNS | UACC-257 melanoma | UACC-62 melanoma | UO-31 renal

CC[C@@]1(O)C(=O)OCc2c1cc1n(c2=O)Cc2c-1nc1ccccc1c2CC[Si](C)(C)C
0.0213 µM: NCI-H23 lung
0.155 µM: MALME-3M melanoma
7.61 µM: A549 NSCLC
0.0155 µM: M14 melanoma
0.116 µM: HCT-116 colon
> 40.6 µM: HT29 colon
0.0544 µM: SF-295 CNS
14.2 µM: COLO 205 colon
0.315 µM: A498 renal
< 0.0467 µM: NCI-H226 lung
1.4 µM: OVCAR-3 ovarian
< 0.0266 µM: 786-0 renal
> 27.7 µM: T-47D breast
> 53.9 µM: MDA-MB-231 breast
1.55 µM: NCI-H522 lung
3.32 µM: SF-539 CNS
6.59 µM: OVCAR-5 ovarian
< 0.0425 µM: SK-MEL-5 melanoma
0.176 µM: UACC-62 melanoma
> 56.9 µM: PC-3 prostate
> 100 µM: BT-549 breast | DU-145 prostate | EKVX NSCLC | HCT-15 colon | HL-60(TB) leukemia | HOP-92 NSCLC | HS 578T breast | IGROV1 ovarian | K-562 leukemia | MCF7 breast | MDA-MB-435 | MDA-N | NCI/ADR-RES ovarian | OVCAR-8 ovarian | SK-MEL-28 melanoma | SNB-19 CNS | SW-620 colon
0.834 µM: RPMI-8226 leukemia
< 0.0335 µM: NCI-H460 lung
0.371 µM: RXF 393 renal
0.458 µM: HOP-62 NSCLC
14 µM: SK-OV-3 ovarian
0.484 µM: SK-MEL-2 melanoma
0.056 µM: UO-31 renal
0.207 µM: CAKI-1 renal
0.103 µM: U251 CNS
0.713 µM: HCC-2998 colon
